Reference: patent publication EP0351418B1, “VIRAL VECTOR SYSTEM FOR THE INTRODUCTION OF FOREIGN DNA […] INTO GA[…]” (SYNERGEN, INC., priority 1987, dated 1988)

System: HVT
Test: Growth and plaque formation of HVT in CEF in the presence of AraT
Format: cell-based, herpesvirus of turkeys (HVT)
Excerpt: In HSV-infected cells, ¹²⁵IdC is incorporated into DNA only after it has been phosphorylated by the viral TK as described by Summers and Summers, J. Virol. 24: 314-318 (1977), specifically incorporated herein by reference. Moreover, growth of HVT in CEF is inhibited by the drug AraT, whereas uninfected CEF appears to be unaffected. AraT (1-beta-D-arabinofuranosyl-thymine obtained from Calbiochem) is lethal to cells only once it is incorporated into the DNA where it acts as a chain-terminator. Again by analogy to HSV, AraT-resistance is likely to be due to mutations in the thymidine kinase gene.
AraT-resistant variants occur spontaneously in populations of FC126, and are isolated by growing cell-free virus as described by Calnek et al., Avian Dis. 16:52-56 (1972), specifically incorporated herein by reference, in CEF in the presence of 100 ug/ml AraT. Specifically, 150 mm tissue culture dishes are seeded with 2 X 10⁷ cells of secondary CEF. Two hours later the medium is removed, and 2 X 10⁴ pfu of cell-free HVT are adsorbed for 30 minutes. After adsorption, 30 ml of medium containing 100 ug/ml of AraT is added. Cells are fluid-changed every two days, always with AraT, and monolayers are screened for plaques 4-5 days post-infection at 40-fold magnfication using an inverted microscope. One AraT-resistant variant ATR° was found in 2 X 10⁵ pfu screened initially. Subsequent experiments have yielded AraT resistant HVT at least that frequency. ATR° remains stable for at least nine passages in the absence of AraT.
In addition, wild-type HVT has a growth advantage over the AraT-resistant variants. These differences between the wild-type HVT and HVT that are AraT-resistant, form the basis for a marker-rescue assay that allows for the identification of the region of DNA, and thus the gene which confers resistance to AraT. DNA from the AraT resistant HVT (10 ug of total infected-cell DNA) is co-transfected with individual DNA clones (200 ng of plasmid DNA or 1 ug of phage DNA) representing the genome of HVT. […]

In the case of `Cc1cn([C@@H]2O[C@H](CO)[C@@H](O)[C@@H]2O)c(=O)[nH]c1=O` [AraT, 1-beta-D-arabinofuranosyl-thymine], the “effect on uninfected CEF” value (AraT, uninfected CEF) is reported as “unaffected”, the “growth of HVT in CEF” value (in the presence of AraT) is reported as “inhibited” and the “plaque-forming ability of wild-type HVT” value (in the presence of AraT) is reported as “completely inhibits”.
